Results as given in patent US9271492B2, “Antimicrobial composition” (Rohm and Haas Company, priority 2011, dated 2016).

Tests used:
Assay type in all cases: cell-based
[1] = tested on: Escherichia coli (10536 strain); test: Example 1: 15 second contact suspension kill assay, mean bacterial survival and MBC; details: component alone; lowest concentration giving complete kill after 15 seconds; upper boundary to the MBC
[2] = tested on: Escherichia coli (E. coli - ATCC #10536); test: Example 2: high resolution MBC synergy assay in phosphate buffer containing 5% dipropylene glycol; details: for ΣFBC: calculated from Ca/MBCA + Cb/MBCB; for MBC of component alone (MBCA, MBCB) / Cb, end-point (MBC) of second component perillyl alcohol in the mixture / Cb, end-point (MBC) of second component carveol in the mixture / Ca, end-point (MBC) of first component thymol in the mixture: complete kill in 15 seconds; for MBC of component alone (MBCA, MBCB): phosphate buffer with 5% DPG, about 1×10^8 bacteria per mL; for Cb, end-point (MBC) of second component perillyl alcohol in the mixture / Cb, end-point (MBC) of second component carveol in the mixture: mixture with thymol at Ca
Description: In this Example, a wide range of combinations of chemicals was tested by conducting high resolution MBC assays of carveol or perillyl alcohol in the presence of various concentrations of thymol. […] The MBC plate was inoculated one column at a time with the test microorganism. An aliquot of the inoculated well was transferred at 15 seconds to a plate containing a neutralizing agent (D/E Neutralizing Broth), mixed and held for 5 minutes before being transferred to a growth plate containing trypticase soy broth (TSB). The TSB plate was incubated at 37° C. and read for the presence/absence of growth at 24 hours. […] This microorganism is representative of natural contaminants in many consumer and industrial applications. […] The tables show the specific combinations of two components; results against the microorganism tested; the end-point activity in weight % measured by the MBC for the first component alone (thymol, MBCA), for the second component alone ([…] alcohol, MBCB), for the first component in the mixture (Ca) and for the second component in the mixture (Cb); the calculated ΣFBC value; and the range of synergistic ratios for each combination tested (first component to second component or A/B) against the particular microorganism.

[3] = tested on: Escherichia coli (E. coli ATCC #10536); test: Example 3: automated assessment of efficacy in surfactant base (2.85% sodium cocoyl glycinate + 1.85% sodium lauroamphoacetate, pH 10); details: for MBC (minimum biocidal concentration): component alone in 2.85% sodium cocoyl glycinate + 1.85% sodium lauroamphoacetate solution at pH 10; for bactericidal efficacy in combination with thymol (in words): in combination with thymol at concentrations lower than their MBC in the same surfactant formulation, complete kill in all 4 or 3 replicates
Description: In these examples, the efficacy of combinations of thymol and menthadiene alcohols were tested in a surfactant cleansing formulation comprising 2.85% sodium cocoyl glycinate and 1.85% sodium lauroamphoacetate. This corresponds to a 50% in use dilution with water of a typical neat formulation containing 5.7% cocoyl glycinate and 3.7% % sodium lauroamphoacetate during hand washing. Solutions were prepared such that the concentrations of the surfactant components and test actives were 1.1 times the final desired concentration in order to allow for dilution with the bacterial inoculum in the test. The solutions were manually adjusted to pH 10.0 by dropwise addition of sodium hydroxide solution, as measured with a pH meter at ambient temperature. Solutions of the thymol and/or menthadiene alcohols were prepared at a maximum of 24 hours before testing. The same thymol and menthadiene alcohols were used as in Example 1.
The efficacy of the combinations of the present invention was determined against the same bacterium as in Example 1, Escherichia coli (E. coli ATCC #10536), at a concentration of approximately 1×10^8 bacteria per mL.
Tests were conducted using standard microtiter plate assays using an automated liquid handling system. 270 μl of the surfactant test solution was pipetted into each well of the microtitre plate (Nunc F Gamma Irradiated 96F untreated microtitre plates of clear polystyrene) and 30 μl of the bacterial suspension was then added. After exactly 15 seconds of bacterial exposure, a 30 μl volume of bacterial cells was withdrawn and transferred to 270 μl of D/E quench solution. After 5 minutes in the D/E quench, the optical density (OD) was measured for each plate in turn at two specific wavelengths (450 nm and 590 nm). These provide a dual check of antimicrobial activity, as the OD450 reading is specific for the yellow colour of D/E quench when bacterial growth is observed, whereas OD590 is specific for the initial purple colour of the D/E quench which is retained if no bacterial growth is observed. […] Delta OD values were calculated by subtracting […] at time=16 hours. […] To identify antibacterially efficacious systems (those preventing appreciable bacterial growth after incubation), the following threshold changes in OD readings have been adopted: if (1). OD450 increases by less than 0.2 absorbance unit (AU) on incubation and (2). […] The number of replicate wells showing either bacterial growth or no growth is also readily assessed by eye by following the colour change. […]
In each case, binary mixtures were assessed in the weight to weight ratio of thymol to menthadiene alcohol of 1:2.5.

Compound: C=C(C)[C@@H]1CC=C(CO)CC1 [perillyl alcohol, (S)-(4-(prop-1-en-2-yl)cyclohex-1-en-1-yl)methanol]
- MBC (minimum biocidal concentration) [1]: 0.1 % w/v
- ΣFBC [2]: 1.00
- MBC of component alone (MBCA, MBCB) [2]: 0.3 weight %
- Cb, end-point (MBC) of second component perillyl alcohol in the mixture ([2]; thymol to perillyl alcohol ratio 1 to 0.13): 0.025 weight %
- Cb, end-point (MBC) of second component perillyl alcohol in the mixture ([2]; thymol to perillyl alcohol ratio 1 to 0.17): 0.05 weight %
- Cb, end-point (MBC) of second component perillyl alcohol in the mixture ([2]; thymol to perillyl alcohol ratio 1 to 0.38): 0.075 weight %
- Cb, end-point (MBC) of second component perillyl alcohol in the mixture ([2]; thymol to perillyl alcohol ratio 1 to 0.5): 0.1 weight %
- Cb, end-point (MBC) of second component perillyl alcohol in the mixture ([2]; thymol to perillyl alcohol ratio 1 to 2.5): 0.2 weight %
- MBC (minimum biocidal concentration) [3]: 0.5 % w/v
- bactericidal efficacy in combination with thymol (in words) [3]: 15 second bactericidal efficacy

Compound: C=C(C)C1CC=C(C)C(O)C1 (stereo not shown) [carveol, 2-methyl-5-(prop-1-en-2-yl)cyclohex-2-enol]
- MBC (minimum biocidal concentration) [1]: 0.3 % w/v
- ΣFBC [2]: 1.00
- MBC of component alone (MBCA, MBCB) [2]: 0.7 weight %
- Cb, end-point (MBC) of second component carveol in the mixture ([2]; thymol to carveol ratio 1 to 0.05): 0.025 weight %
- Cb, end-point (MBC) of second component carveol in the mixture ([2]; thymol to carveol ratio 1 to 0.08): 0.05 weight %
- Cb, end-point (MBC) of second component carveol in the mixture ([2]; thymol to carveol ratio 1 to 0.25): 0.075 weight %
- Cb, end-point (MBC) of second component carveol in the mixture ([2]; thymol to carveol ratio 1 to 0.5): 0.1 weight %
- Cb, end-point (MBC) of second component carveol in the mixture ([2]; thymol to carveol ratio 1 to 4.38): 0.35 weight %
- bactericidal efficacy in combination with thymol (in words) [3]: 15 second bactericidal efficacy

Compound: Cc1ccc(C(C)C)c(O)c1 [thymol, 2-isopropyl-5-methylphenol]
- ΣFBC [2]: 1.00
- Ca, end-point (MBC) of first component thymol in the mixture ([2]; mixture with carveol at Cb, thymol to carveol ratio 1 to 0.05): 0.5 weight %
- Ca, end-point (MBC) of first component thymol in the mixture ([2]; mixture with carveol at Cb, thymol to carveol ratio 1 to 0.08): 0.6 weight %
- Ca, end-point (MBC) of first component thymol in the mixture ([2]; mixture with carveol at Cb, thymol to carveol ratio 1 to 0.19): 0.4 weight %
- Ca, end-point (MBC) of first component thymol in the mixture ([2]; mixture with carveol at Cb, thymol to carveol ratio 1 to 0.25): 0.3 weight %
- Ca, end-point (MBC) of first component thymol in the mixture ([2]; mixture with carveol at Cb, thymol to carveol ratio 1 to 0.5): 0.2 weight %
- Ca, end-point (MBC) of first component thymol in the mixture ([2]; mixture with carveol at Cb, thymol to carveol ratio 1 to 3.5): 0.1 weight %
- Ca, end-point (MBC) of first component thymol in the mixture ([2]; mixture with carveol at Cb, thymol to carveol ratio 1 to 4.38): 0.08 weight %
- Ca, end-point (MBC) of first component thymol in the mixture ([2]; mixture with perillyl alcohol at Cb, thymol to perillyl alcohol ratio 1 to 0.17): 0.3 weight %
- Ca, end-point (MBC) of first component thymol in the mixture ([2]; mixture with perillyl alcohol at Cb, thymol to perillyl alcohol ratio 1 to 0.5): 0.2 weight %
- Ca, end-point (MBC) of first component thymol in the mixture ([2]; mixture with perillyl alcohol at Cb, thymol to perillyl alcohol ratio 1 to 2.5): 0.08 weight %
- MBC (minimum biocidal concentration) [3]: 0.2 % w/v
